The values that follow come from DBAASP.

What all share (assay): ≥ marks a high value that may be exact or a test limit, other limits are often not marked, values filed in µg/mL are converted to µM
Experiment [1] has as its system Escherichia coli ATCC 25922.
Experiment [2] concerns Staphylococcus aureus LAC.
In experiment [3] the test system is Pseudomonas aeruginosa 1570.
Experiment [4] relates to Pseudomonas aeruginosa 5167.
Another experiment relates to Bacillus subtilis.
For another experiment, the system named is Escherichia coli W160-37.
Experiment [5] relates to Pseudomonas putida NCIM 2102.
Experiment [6] concerns Staphylococcus aureus 8530.
For experiment [7], the system named is Aspergillus flavus KCTC 6905.
For experiment [8], the system named is Candida albicans CCARM 14001.
Experiment [9] relates to Candida albicans CCARM 14004.
Experiment [10] relates to Candida albicans CCARM 14007.
Experiment [11] deals with Candida albicans CCARM 14020.
Experiment [12] deals with Candida albicans KCTC 7270.
The test system of experiment [13] is Candida krusei CCARM 14017.
In experiment [14] the test system is Candida parapsilosis CCARM 14016.
In experiment [15] the test system is Colletotrichum gloeosporioides KCTC 6169.
For experiment [16], the system named is Fusarium graminearum KCTC 16656.
The subject of experiment [17] is Fusarium oxysporum KCTC 16909.
For experiment [18], the system named is Fusarium solani KCTC 6326.
Experiment [19] deals with Fusarium verticillioides KCTC 6149.
Experiment [20] has as its system Trichoderma virens KCTC 16924.
For experiment [21], the system named is Trichoderma viride KCTC 16992.
Experiment [22] deals with Trichophyton rubrum KCTC 6345.
Experiment [23] relates to Bacillus subtilis KCTC 3068.
Experiment [24] deals with Enterococcus faecium ATCC 51559.
Experiment [25] deals with Pseudomonas aeruginosa CCARM 2095.
The test system of experiment [26] is Pseudomonas aeruginosa CCARM 2109.
In experiment [27] the test system is Pseudomonas aeruginosa KCTC 1637.
The subject of experiment [28] is Salmonella typhimurium KCTC 1926.
The test system of experiment [29] is Staphylococcus aureus CCARM 3089.
In experiment [30] the test system is Staphylococcus aureus CCARM 3090.
For experiment [31], the system named is Staphylococcus aureus CCARM 3095.
Experiment [32] relates to Staphylococcus epidermidis KCTC 1917.
Experiment [33] relates to Bacillus subtilis KCTC 1998.
Experiment [34] deals with Escherichia coli CCARM 1229.
The test system of experiment [35] is Escherichia coli CCARM 1238.
Experiment [36] deals with Listeria monocytogenes KCTC 3710.
The test system of experiment [37] is Pseudomonas aeruginosa 4007.
Experiment [38] deals with Pseudomonas aeruginosa 4891.
In experiment [39] the test system is Pseudomonas aeruginosa ATCC 27853.
In experiment [40] the test system is Staphylococcus aureus ATCC 25923.
Experiment [41] has as its system Staphylococcus aureus CCARM 3518.
Experiment [42] concerns Trichosporon beigelii KCTC 7707.

One may read the MIC as the lowest concentration that inhibits growth of the organism. A higher MIC goes with a less susceptible organism.

≈ marks a conversion by molar mass, not a printed value.

Consider `C[C@H](N)C(=O)N[C@@H](C)C(=O)N[C@@H](C)C(=O)N[C@@H](C)C(=O)N[C@@H](CCCN=C(N)N)C(=O)N[C@@H](CCCN=C(N)N)C(=O)N[C@@H](CCCN=C(N)N)C(=O)N[C@@H](CCCN=C(N)N)C(=O)O` [AAAARRRR], for which the values for the MIC in experiment [1] and in experiment [2] were over 138 µM and at least 138 µM, respectively.
For the compound `CC(C)C[C@H](NC(=O)[C@H](CC(C)C)NC(=O)[C@H](CCCCN)NC(=O)[C@H](CCCCN)NC(=O)[C@H](CC(C)C)NC(=O)[C@H](C)NC(=O)[C@H](CCCCN)NC(=O)[C@H](CC(C)C)NC(=O)[C@@H](N)Cc1ccccc1)C(N)=O` [FLKALKKLL], the MIC was 10.5 µM (≈ 11.3 µg/mL) in experiment [3] and at least 119 µM in experiment [4].
For the compound `CC[C@H](C)[C@H](NC(=O)[C@H](CC(C)C)NC(=O)[C@H](CCCCN)NC(=O)[C@H](CCCCN)NC(=O)[C@H](CC(C)C)NC(=O)CN)C(=O)N[C@@H](CO)C(=O)N[C@@H](Cc1c[nH]c2ccccc12)C(=O)N[C@H](C(=O)N[C@@H](CCCCN)C(=O)N[C@@H](CCCN=C(N)N)C(=O)N[C@@H](C)C(=O)N[C@@H](C)C(=O)N[C@@H](CCC(N)=O)C(=O)N[C@@H](CCC(N)=O)C(=O)NCC(N)=O)[C@@H](C)CC` [GLKKLISWIKRAAQQG], the MIC in the experiment with Bacillus subtilis was determined as 1.57 µM (≈ 2.83 µg/mL); against Escherichia coli W160-37, 6.81 µM (≈ 12.2 µg/mL); in experiment [5], 30.5 µM (≈ 54.7 µg/mL); in [6] it was 3.93 µM (≈ 7.07 µg/mL).
`NCCCC[C@H](NC(=O)[C@H](CCCCN)NC(=O)[C@H](Cc1cnc[nH]1)NC(=O)[C@H](CCCCN)NC(=O)[C@H](CCCCN)NC(=O)[C@H](Cc1cnc[nH]1)NC(=O)[C@H](CCCCN)NC(=O)[C@H](CCCCN)NC(=O)[C@H](Cc1cnc[nH]1)NC(=O)[C@H](CCCCN)NC(=O)[C@H](CCCCN)NC(=O)[C@H](Cc1cnc[nH]1)NC(=O)[C@H](CCCCN)NC(=O)[C@H](CCCCN)NC(=O)[C@H](Cc1cnc[nH]1)NC(=O)[C@H](CCCCN)NC(=O)[C@H](CCCCN)NC(=O)[C@@H](N)Cc1cnc[nH]1)C(N)=O` [HKKHKKHKKHKKHKKHKK]: the minimum inhibitory concentration (MIC) in experiment [7] was found to be 4 µM (≈ 9.51 µg/mL); in experiment [8] it was 16 µM (≈ 38 µg/mL); in experiment [9], 16 µM (≈ 38 µg/mL); in experiment [10], 16 µM (≈ 38 µg/mL); in [11] it was 16 µM (≈ 38 µg/mL); in [12], 16 µM (≈ 38 µg/mL). Besides, the minimal inhibitory concentration (MIC) was found to be 4 µM (≈ 9.51 µg/mL) in experiment [13]; 16 µM (≈ 38 µg/mL) in experiment [14]; 1 µM (≈ 2.38 µg/mL) in [15]; 8 µM (≈ 19 µg/mL) in [16]; 2 µM (≈ 4.76 µg/mL) in experiment [17]; 2 µM (≈ 4.76 µg/mL) in [18]. Besides, the MIC stood at 2 µM (≈ 4.76 µg/mL) in experiment [19], 8 µM (≈ 19 µg/mL) in experiment [20], 2 µM (≈ 4.76 µg/mL) in experiment [21] and 8 µM (≈ 19 µg/mL) in [22].
Take `CC[C@H](C)[C@H](NC(=O)[C@H](Cc1ccccc1)NC(=O)[C@H](CCCN=C(N)N)NC(=O)[C@@H](N)CCCCN)C(=O)N[C@@H](CCCCN)C(=O)N[C@@H](Cc1c[nH]c2ccccc12)C(=O)N[C@@H](Cc1ccc(O)cc1)C(=O)N[C@@H](CC(N)=O)C(=O)N[C@@H](C)C(=O)N[C@@H](Cc1c[nH]c2ccccc12)C(=O)N[C@@H](CC(N)=O)C(=O)N[C@@H](CCC(=O)O)C(=O)N[C@@H](CCCCN)C(=O)N[C@@H](CCCN=C(N)N)C(=O)N[C@@H](CCCN=C(N)N)C(=O)N[C@H](C(=O)N[C@@H](Cc1ccc(O)cc1)C(N)=O)C(C)C` [KRFIKWYNAWNEKRRVY]: the MIC worked out at 8 µM (≈ 18.9 µg/mL) in experiment [23]; 8 µM (≈ 18.9 µg/mL) in [24]; 4 µM (≈ 9.43 µg/mL) in [25]; 16 µM (≈ 37.7 µg/mL) in experiment [26]; 16 µM (≈ 37.7 µg/mL) in experiment [27]; 4 µM (≈ 9.43 µg/mL) in [28]. Moreover, the MIC in [29], in experiment [30], in [31] and in [32] was 8 µM (≈ 18.9 µg/mL) each time.
With `CC[C@H](C)[C@H](NC(=O)CNC(=O)[C@H](CCC(N)=O)NC(=O)[C@H](Cc1ccccc1)NC(=O)[C@@H](NC(=O)[C@H](CCCCN)NC(=O)[C@H](CCCCN)NC(=O)[C@H](CC(C)C)NC(=O)[C@H](C)NC(=O)[C@H](CC(N)=O)NC(=O)[C@H](CC(C)C)NC(=O)[C@@H](N)Cc1c[nH]c2ccccc12)C(C)C)C(=O)N[C@@H](Cc1cnc[nH]1)C(=O)N[C@@H](CCC(=O)O)C(=O)N[C@@H](C)C(=O)N[C@H](C(=O)N[C@@H](CCCCN)C(=O)N[C@@H](CC(C)C)C(=O)N[C@H](C(=O)N[C@@H](Cc1c[nH]c2ccccc12)C(=O)N[C@@H](CC(N)=O)C(=O)N[C@@H](Cc1c[nH]c2ccccc12)C(=O)N[C@H](C(=O)N[C@@H](CCC(N)=O)C(N)=O)C(C)C)[C@@H](C)CC)[C@@H](C)CC` [WLNALKKVFQGIHEAIKLIWNWVQ], the MIC is at least 32 µM in experiment [33]; at least 32 µM in experiment [12]; 16 µM (≈ 47 µg/mL) in experiment [1]; at least 32 µM in [34]; at least 32 µM in experiment [35]; at least 32 µM in experiment [36]. In addition, the minimal inhibitory concentration (MIC) in experiment [37] is at least 64 µM; in experiment [38], at least 64 µM; in experiment [39], 16 µM (≈ 47 µg/mL); in experiment [28], 16 µM (≈ 47 µg/mL); in [40] it was 32 µM (≈ 93.9 µg/mL); in [30], at least 32 µM. Further, the MIC in experiment [41] and in experiment [42] was at least 32 µM in each case.
